Results: publication PMC11045757, “Group 3 medulloblastoma transcriptional networks collapse under domain specific EP300/CBP inhibition” (Nature Communications, 2024)
Where “and” joins values, the source holds several entries; their conditions need not be identical. Equal values may be shown once.

Tests used:
BRD4-BD1 (BRD4-1) = target: T1, BRD4-BD1 (BRD4-1) (Homo sapiens, UniProt O60885); assay: Differential scanning fluorimetry (DSF) thermal shift; assay type: binding
T1 construct: BRD4-BD1 (residues 44-168); 6xHis (cleaved yes); host or cells: E. coli BL21 (DE3) RIL
How it was run: (§1)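 Thermal shift of 5 μM E. coli-expressed bromodomain with 100 μM compound in 50 mM HEPES pH 7.5, 150 mM NaCl, 2 mM DTT, 2% DMSO, 5X SYPRO Orange, quadruplicate. Heated 25→95 °C at 1 °C/min, fluorescence at 610 nm; ΔTm relative to DMSO reference wells.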

EP300 bromodomain = target: T2, EP300 bromodomain (Homo sapiens, UniProt Q09472); assay: as above; assay type: binding
T2 construct: 6xHis (cleaved yes); host or cells: E. coli BL21 (DE3) RIL
T2 sequence (Q09472 1048-1161): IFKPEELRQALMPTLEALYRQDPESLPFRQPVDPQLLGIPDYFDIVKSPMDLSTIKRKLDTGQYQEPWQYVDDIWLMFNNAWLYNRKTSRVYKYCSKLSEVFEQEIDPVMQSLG
How it was run: as §1

ATAD2A = target: T3, ATAD2A (Homo sapiens, UniProt Q6PL18); assay: BromoScan profiling (DiscoverX); assay type: binding; conditions: read-out: Percent Control ATAD2A
T3 construct: purchased Eurofins DiscoverX (BROMOscan)
T3 sequence (Q6PL18 whole entry): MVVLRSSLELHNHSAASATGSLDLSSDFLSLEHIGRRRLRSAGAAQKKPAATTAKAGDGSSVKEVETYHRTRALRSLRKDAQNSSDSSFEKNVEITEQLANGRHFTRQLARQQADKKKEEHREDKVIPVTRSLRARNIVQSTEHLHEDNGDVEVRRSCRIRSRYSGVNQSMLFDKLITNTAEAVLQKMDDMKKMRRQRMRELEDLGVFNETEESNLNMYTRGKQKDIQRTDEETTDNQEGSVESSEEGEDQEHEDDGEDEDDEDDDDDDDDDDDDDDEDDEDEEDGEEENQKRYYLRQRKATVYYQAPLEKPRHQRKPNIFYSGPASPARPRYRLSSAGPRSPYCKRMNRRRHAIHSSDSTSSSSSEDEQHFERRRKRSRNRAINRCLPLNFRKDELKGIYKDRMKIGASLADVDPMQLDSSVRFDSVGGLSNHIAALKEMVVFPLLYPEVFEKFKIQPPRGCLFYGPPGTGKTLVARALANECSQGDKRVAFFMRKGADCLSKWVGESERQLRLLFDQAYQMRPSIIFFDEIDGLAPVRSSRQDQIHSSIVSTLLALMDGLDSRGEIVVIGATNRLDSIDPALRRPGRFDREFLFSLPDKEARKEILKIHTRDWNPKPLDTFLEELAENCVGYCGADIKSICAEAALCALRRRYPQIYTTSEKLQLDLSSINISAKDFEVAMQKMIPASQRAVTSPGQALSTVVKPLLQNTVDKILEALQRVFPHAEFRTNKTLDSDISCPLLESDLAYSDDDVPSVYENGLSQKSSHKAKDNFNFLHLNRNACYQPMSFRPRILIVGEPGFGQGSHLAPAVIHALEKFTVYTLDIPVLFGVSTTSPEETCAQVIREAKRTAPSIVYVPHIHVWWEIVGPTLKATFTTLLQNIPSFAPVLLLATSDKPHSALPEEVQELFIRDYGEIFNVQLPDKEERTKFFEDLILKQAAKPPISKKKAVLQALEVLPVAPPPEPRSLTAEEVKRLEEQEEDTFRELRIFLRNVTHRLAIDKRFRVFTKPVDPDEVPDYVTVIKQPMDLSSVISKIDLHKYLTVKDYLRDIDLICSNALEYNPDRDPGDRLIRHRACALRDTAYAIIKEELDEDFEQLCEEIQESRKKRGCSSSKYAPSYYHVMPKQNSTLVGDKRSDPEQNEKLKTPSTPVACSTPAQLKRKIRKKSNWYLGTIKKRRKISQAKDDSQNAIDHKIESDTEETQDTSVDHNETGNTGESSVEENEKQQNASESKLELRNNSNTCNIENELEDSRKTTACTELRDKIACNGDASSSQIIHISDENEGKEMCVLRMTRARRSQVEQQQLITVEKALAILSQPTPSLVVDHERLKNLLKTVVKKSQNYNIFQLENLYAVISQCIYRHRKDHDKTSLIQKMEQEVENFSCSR

BAZ2B = target: T4, BAZ2B (Homo sapiens, UniProt Q9UIF8); assay: BromoScan profiling (DiscoverX); assay type: binding; conditions: read-out: Percent Control BAZ2B
T4 construct: purchased Eurofins DiscoverX (BROMOscan)

BRDT(1) = target: T5, BRDT(1) (Homo sapiens, UniProt Q58F21); assay: BromoScan profiling (DiscoverX); assay type: binding; conditions: read-out: Percent Control BRDT(1)
T5 construct: BRDT(1); purchased Eurofins DiscoverX (BROMOscan)

EP300 = target: T6, EP300 (Homo sapiens, UniProt Q09472); assay: BromoScan profiling (DiscoverX); assay type: binding; conditions: read-out: Percent Control EP300
T6 construct: purchased Eurofins DiscoverX (BROMOscan)

GCN5L2 = target: T7, GCN5L2 (Homo sapiens, UniProt Q92830); assay: BromoScan profiling (DiscoverX); assay type: binding; conditions: read-out: Percent Control GCN5L2
T7 construct: purchased Eurofins DiscoverX (BROMOscan)
T7 sequence (Q92830 whole entry): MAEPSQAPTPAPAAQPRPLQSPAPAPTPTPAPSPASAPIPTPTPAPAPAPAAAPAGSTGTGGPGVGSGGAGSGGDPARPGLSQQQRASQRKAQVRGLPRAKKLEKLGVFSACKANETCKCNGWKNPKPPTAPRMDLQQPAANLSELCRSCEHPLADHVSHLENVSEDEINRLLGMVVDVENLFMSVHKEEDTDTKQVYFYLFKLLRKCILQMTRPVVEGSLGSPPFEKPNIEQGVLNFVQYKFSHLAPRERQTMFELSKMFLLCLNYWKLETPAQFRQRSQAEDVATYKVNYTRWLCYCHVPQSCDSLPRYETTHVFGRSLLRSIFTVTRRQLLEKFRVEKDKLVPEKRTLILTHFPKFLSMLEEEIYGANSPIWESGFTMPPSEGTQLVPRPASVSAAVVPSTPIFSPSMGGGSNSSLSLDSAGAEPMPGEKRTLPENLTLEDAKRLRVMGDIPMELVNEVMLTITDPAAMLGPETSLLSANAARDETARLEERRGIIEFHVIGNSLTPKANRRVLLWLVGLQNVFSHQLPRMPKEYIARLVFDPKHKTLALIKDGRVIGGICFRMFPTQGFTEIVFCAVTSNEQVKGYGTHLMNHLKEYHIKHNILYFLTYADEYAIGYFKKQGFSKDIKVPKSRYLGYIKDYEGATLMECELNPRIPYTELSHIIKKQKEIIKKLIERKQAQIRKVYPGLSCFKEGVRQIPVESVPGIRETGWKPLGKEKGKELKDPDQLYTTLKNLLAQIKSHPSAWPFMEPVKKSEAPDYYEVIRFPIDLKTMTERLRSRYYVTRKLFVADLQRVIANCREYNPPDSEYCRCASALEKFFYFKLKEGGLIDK

PBRM1(2) = target: T8, PBRM1(2) (Homo sapiens, UniProt Q86U86); assay: BromoScan profiling (DiscoverX); assay type: binding; conditions: read-out: Percent Control PBRM1(2)
T8 construct: PBRM1(2); purchased Eurofins DiscoverX (BROMOscan)
T8 sequence (Q86U86 178-291 limits assumed): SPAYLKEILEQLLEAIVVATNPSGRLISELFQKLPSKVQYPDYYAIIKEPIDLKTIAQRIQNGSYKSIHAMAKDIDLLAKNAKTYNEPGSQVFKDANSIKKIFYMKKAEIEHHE

SMARCA4 = target: T9, SMARCA4 (Homo sapiens, UniProt P51532); assay: BromoScan profiling (DiscoverX); assay type: binding; conditions: read-out: Percent Control SMARCA4
T9 construct: purchased Eurofins DiscoverX (BROMOscan)
T9 sequence (P51532 whole entry): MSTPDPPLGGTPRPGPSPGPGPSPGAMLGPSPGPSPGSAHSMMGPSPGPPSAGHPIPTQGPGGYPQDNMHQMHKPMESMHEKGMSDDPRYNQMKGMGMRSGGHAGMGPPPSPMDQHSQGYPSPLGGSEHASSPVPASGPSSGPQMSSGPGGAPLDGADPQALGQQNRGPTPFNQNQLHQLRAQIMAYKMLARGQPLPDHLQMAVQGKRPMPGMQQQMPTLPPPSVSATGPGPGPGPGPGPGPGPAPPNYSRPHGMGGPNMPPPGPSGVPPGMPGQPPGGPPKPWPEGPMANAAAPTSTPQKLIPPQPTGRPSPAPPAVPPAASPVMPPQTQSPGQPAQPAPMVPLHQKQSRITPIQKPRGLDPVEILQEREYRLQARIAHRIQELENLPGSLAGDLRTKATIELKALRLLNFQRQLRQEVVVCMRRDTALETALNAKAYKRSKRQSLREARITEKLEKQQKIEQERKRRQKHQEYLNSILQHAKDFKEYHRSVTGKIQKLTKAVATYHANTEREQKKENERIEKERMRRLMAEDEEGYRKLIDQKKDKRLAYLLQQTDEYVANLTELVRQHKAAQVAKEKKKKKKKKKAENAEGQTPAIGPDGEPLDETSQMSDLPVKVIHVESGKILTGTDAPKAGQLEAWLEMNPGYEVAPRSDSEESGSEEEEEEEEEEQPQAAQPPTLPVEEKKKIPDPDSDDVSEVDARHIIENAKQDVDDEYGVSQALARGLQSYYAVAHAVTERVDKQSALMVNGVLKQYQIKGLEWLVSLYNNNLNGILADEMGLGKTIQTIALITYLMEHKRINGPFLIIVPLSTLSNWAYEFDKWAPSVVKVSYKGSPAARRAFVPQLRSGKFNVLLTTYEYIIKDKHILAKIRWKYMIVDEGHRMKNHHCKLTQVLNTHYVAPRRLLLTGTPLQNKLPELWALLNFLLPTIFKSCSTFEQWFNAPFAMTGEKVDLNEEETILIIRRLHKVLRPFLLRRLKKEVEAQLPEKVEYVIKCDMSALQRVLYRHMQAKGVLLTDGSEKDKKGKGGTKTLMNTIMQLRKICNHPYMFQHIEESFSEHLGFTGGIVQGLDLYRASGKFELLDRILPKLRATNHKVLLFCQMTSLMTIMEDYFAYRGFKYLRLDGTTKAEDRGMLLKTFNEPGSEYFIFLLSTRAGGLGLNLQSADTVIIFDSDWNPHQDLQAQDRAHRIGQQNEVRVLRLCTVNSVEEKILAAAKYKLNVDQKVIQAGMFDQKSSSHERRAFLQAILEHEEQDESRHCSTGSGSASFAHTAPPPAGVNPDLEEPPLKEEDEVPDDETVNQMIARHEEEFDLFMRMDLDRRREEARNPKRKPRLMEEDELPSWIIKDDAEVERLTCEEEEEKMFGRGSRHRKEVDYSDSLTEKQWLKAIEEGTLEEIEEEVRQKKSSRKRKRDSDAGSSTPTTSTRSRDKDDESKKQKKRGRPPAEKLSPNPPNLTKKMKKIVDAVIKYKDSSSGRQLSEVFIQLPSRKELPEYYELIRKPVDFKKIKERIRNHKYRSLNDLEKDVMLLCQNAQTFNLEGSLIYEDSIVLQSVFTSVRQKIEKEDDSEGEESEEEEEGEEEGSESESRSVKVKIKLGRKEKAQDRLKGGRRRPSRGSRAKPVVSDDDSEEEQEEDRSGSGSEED

TRIM33(PHD,Bromo.) = assay: BromoScan profiling (DiscoverX); assay type: binding, human; conditions: 1 µM
[1] = Plasma pharmacokinetics after i.p. dosing; assay type: in vivo, female CD-1 nude mice; conditions: 16 and 24 hrs, below lower limit of quantitation
Protocol: All animal studies were approved by the St. Jude Children’s Research Hospital Animal Care and Use Committee and performed in accordance with best practices outlined by the NIH Office of Laboratory Animal Welfare. […] Three survival blood samples were obtained from each mouse via retro-orbital plexus using 70 μL glass microhematocrit capillary tubes (Fisher), and a fourth final sample by cardiac puncture immediately following the third survival sample, all using K-EDTA as anticoagulant. Samples were obtained at various times up to 24 h post-dose, immediately processed to plasma, and stored at −80 °C until analysis. […]
Brain samples were homogenized using a FastPrep-24 system (MP Biomedicals, Santa Ana, CA), and stored at -80 °C until analysis by qualified liquid chromatography–tandem mass spectrometry (LC-MS/MS) assay. […] Plasma and brain homogenate samples were precipitated, and extracted supernatant was analyzed on an AB Sciex ExionLC high performance liquid chromatography system via an AB Sciex ExionLC autosampler. For quantitation, a linear model (1/X^2 weighting) fit the plasma and brian homogenate calibrators across the 1 to 500 ng/mL range, with a correlation coefficient (R) of ≥0.9967. The lower limit of quantitation (LLOQ), defined as a peak area signal-to-noise ratio of 5 or greater verses a matrix blank with internal standard, was 1 ng/mL in plasma and 6 ng/mL in brain. […]

[2] = DSF, 5 μM protein, 100 μM compound, three independent experiments, average ± SD

ΔTm (°C) (BRD4-BD1 (BRD4-1); DSF thermal shift vs DMSO, BRD4-BD1, Fig 2B): 6.7 °C
∆Tm (°C) BRD4-1 (BRD4-BD1 (BRD4-1); [2]): 6.7 ± 0.16 °C and 6.7 °C
ΔTm (°C) (EP300 bromodomain; DSF thermal shift vs DMSO, EP300 bromodomain, Fig 2B): 18.3 °C
∆Tm (°C) EP300 (EP300 bromodomain; [2]): 18.3 ± 0.2 °C
ΔTm (°C) EP300 (EP300 bromodomain; Figure 3B, DSF, EP300): 18.3 °C
remaining binding at 1 µM (ATAD2A): 100%
remaining binding at 1 µM (BAZ2B): 82%
remaining binding at 1 µM (BRDT(1)): 14%
remaining binding at 1 µM (EP300): 1.6%
remaining binding at 1 µM (GCN5L2): 100%
remaining binding at 1 µM (PBRM1(2)): 78%
remaining binding at 1 µM (SMARCA4): 61%
plasma concentration [1]: < 1 ng/mL
Structure (SMILES): CO[C@H]1CC[C@H](n2c([C@@H]3CCCC(=O)N3c3ccc(F)c(F)c3)nc3cc(-c4c(C)noc4C)ccc32)CC1 [CCS1477]
Percent Control TRIM33(PHD,Bromo.) (TRIM33(PHD,Bromo.)): 90
